Results taken from patent publication US10668032B2 (SyneuRx International (Taiwan) Corp., priority 2016, dated 2020).

Key:
[1] = test system: B6SJL-Tg(SOD1*G93A)1Gur/J mice; assay: SOD1*G93A transgenic ALS mice: behavioral tasks, body weight, survival; type: in vivo, mouse
From the text: Disease onset of B6SJL-Tg(SOD1*G93A)1Gur/J mice occurred at around 80-90 days of age, while progressive clinical weakness followed by paralysis and death occurred by 135-140 days.
In cohort 2, the male transgenic and wild-type littermates were randomly divided into 3 groups as cohort 1: vehicle (n=5), vehicle-ALS (n=6), and drug-ALS (n=11). Disease onset occurred at around 110-120 days of age, while progressive clinical weakness followed by paralysis and death occurred at around 150-155 days.
In cohort 1, drug regimen was initiated 8 weeks after birth and continued until the end of study. […] The vehicle groups received injections of the same volume of saline.
The drug regimen for cohort 2 was the same as that for cohort 1 except the dosing was started at 10 weeks of age.
Open field is an animal behavioral task that can monitor the overall spontaneous locomotor activity. Each animal was placed in an empty test arena (60 cm×60 cm plastic boxes) for 1 hour, and its activity was assessed by VersaMax Animal Activity Monitoring System (AccuScan Instruments, Inc. Columbus Ohio, USA). Total traveling distance, number of rearing movements and rearing time were analyzed. Performance of open field was measured 1-2 times per week.
In the open field task, each animal was placed in an empty test arena (43.2 cm×21.6 cm plastic boxes) for 1 hour, and its activity was assessed by Photobeam Activity System (San Diego Instruments, USA). Total traveling and rearing activities (beam break times) were analyzed. Performance of open field was measured once per week.
Rorarod task, which requires animals to balance and walk on a rotating cylinder, is a widely used test to measure coordinated motor skills. The mice were placed on a 5-channel automatic revolving rod apparatus (PanLab/Harvard Apparatus). […] After the training sessions, motor coordination was evaluated at 16 rpm for a maximum of 5 min. […] Performance of rotarod task was measured once per week, and the longest retention time for each animal was recorded.
A metal wire mesh (0.2 cm diameter, 1 cm×1 cm wide grid) was fixed horizontally 30 cm above the table. […] The latency to fall was recorded when the animal fell, and a maximum time of 180 s was assigned for analysis. There were two sessions for each individual with a 30-min interval, and the longer time was recorded. Performance of hanging test was measured once per week.
For each animal, body weight was measured weekly starting at 10 weeks of age. […]
Date and cause of death were recorded for each mouse. Animals were closely monitored and euthanized if moribund, which was defined as the inability of mice to right themselves 30 seconds after being placed on a side, in accordance with the criteria for severe morbidity. The moribund mice were recorded as “dead”, and euthanized using carbon dioxide.

primary cortical neurons = assay: 3-NP induced toxicity in primary cortical culture (Hoechst staining, MAP-2 immunocytochemistry); type: cell-based, rat
Method: Primary cortical cultures were prepared from embryonic day 18 (E18) fetal Sprague Dawley (SD) rat brains. The cells were maintained in Neurobasal medium supplemented with B27 (GIBCO/Life Technologies of Thermo Fisher Scientific Corporation) at 37° C. for 7 days to allow growth of dendrites before experimentation.
3-NP (Cat. No. 73803, Sigma, St. Louis, Mo., USA) was dissolved in phosphate-buffered saline (PBS) as a stock solution of 1 M and adjusted to pH 7.4 with 10 M sodium hydroxide. The 3-NP stock solution was then dispensed into 1-ml aliquots, protected from light, and stored at −20° C. until use.
Hoechst staining is used to assess the extent of the cell survival. Cells were fixed in 4% paraformaldehyde (PFA) in phosphate-buffered saline (PBS), incubated with the Hoechst 33342 diluted in PBS (1:1000) for 5-15 minutes. The Hoechst staining is used to assess the extent of the cell survival after the exposure to 2.5 mM 3-NP for 24 hours.
Cells were fixed in 4% PFA and washed in PBS, blocked with 2% bovine serum albumin (BSA) and treated by 0.03% Triton X-100 in PBS, before being incubated with mouse monoclonal antibody against microtubule-associated protein-2 (MAP-2) in 1:150 dilution (Cat. No. MAB378, CHEMICON International, Inc., Temecula, Calif., USA). The goat anti-mouse IgG Alexa fluor-conjugated secondary antibodies (Cat No. A11003, Thermo Scientific) in 1:500 dilution were applied to recognize the primary antibodies of the MAP-2. For confocal microscopy, the coverslips were observed under a laser-scanning confocal microscope (Zeiss LSM700; Oberkochen, Germany) equipped with filter sets to detect the corresponding fluorescent signals.
The cells were then exposed to 2.5 mM 3-NP for 24 hours.
Quantitative analysis was also performed to assess the extents of cell death. At least three vision fields were randomly selected and the averaged numbers of dead cells and all nuclei per vision field on each coverslip were calculated.

[2] = 256 mg/kg/day i.p., vs ALS mice treated with vehicle

With O=C([O-])c1ccccc1.[Li+] [lithium benzoate] the “proportion of mice surviving over time” value [1, 2] was “improved”, the weight change [1, 2] was “improved” and the “hind limb functions (number of rearing movements, rearing time; open field)” value ([1]; cohort 1, female, 256 mg/kg/day i.p. from 8 weeks, about 90 to about 130 days of age, vs saline ALS mice) was “significantly improved”. For the same compound, the “motor functions (hanging test, rotarod test, rearing activity, traveling activity)” value ([1]; cohort 2, male, 256 mg/kg/day i.p. from 10 weeks, about 133 to about 147 days of age, vs saline ALS mice) was “improved”, the “cell survival, drug only” value (primary cortical neurons; cortical culture treated only with lithium benzoate, not 3-NP) was “No difference” and the “cell survival (protection from 3-NP induced neuron death)” value (primary cortical neurons; lithium benzoate 1 mM or 3 mM pre-treatment 24 h, then 2.5 mM 3-NP 24 h) was “significantly protected”. The “MAP-2 immunocytochemistry, confocal microscopy” value (primary cortical neurons; lithium benzoate 1 or 3 mM, 3-NP exposure) was “neuronal protection”.
